The target in data set [1] is Tumor necrosis factor (Homo sapiens, UniProt P01375). The data set is described as follows: analog potency on TNFa NF-kB signaling – cell-based, revised, SAR follow-up (AID 2337). Format: functional.
Data set [2] addresses T1, Nucleotide-binding oligomerization domain-containing protein 1 (Homo sapiens, UniProt Q9Y239).
T1 sequence (Q9Y239 whole entry): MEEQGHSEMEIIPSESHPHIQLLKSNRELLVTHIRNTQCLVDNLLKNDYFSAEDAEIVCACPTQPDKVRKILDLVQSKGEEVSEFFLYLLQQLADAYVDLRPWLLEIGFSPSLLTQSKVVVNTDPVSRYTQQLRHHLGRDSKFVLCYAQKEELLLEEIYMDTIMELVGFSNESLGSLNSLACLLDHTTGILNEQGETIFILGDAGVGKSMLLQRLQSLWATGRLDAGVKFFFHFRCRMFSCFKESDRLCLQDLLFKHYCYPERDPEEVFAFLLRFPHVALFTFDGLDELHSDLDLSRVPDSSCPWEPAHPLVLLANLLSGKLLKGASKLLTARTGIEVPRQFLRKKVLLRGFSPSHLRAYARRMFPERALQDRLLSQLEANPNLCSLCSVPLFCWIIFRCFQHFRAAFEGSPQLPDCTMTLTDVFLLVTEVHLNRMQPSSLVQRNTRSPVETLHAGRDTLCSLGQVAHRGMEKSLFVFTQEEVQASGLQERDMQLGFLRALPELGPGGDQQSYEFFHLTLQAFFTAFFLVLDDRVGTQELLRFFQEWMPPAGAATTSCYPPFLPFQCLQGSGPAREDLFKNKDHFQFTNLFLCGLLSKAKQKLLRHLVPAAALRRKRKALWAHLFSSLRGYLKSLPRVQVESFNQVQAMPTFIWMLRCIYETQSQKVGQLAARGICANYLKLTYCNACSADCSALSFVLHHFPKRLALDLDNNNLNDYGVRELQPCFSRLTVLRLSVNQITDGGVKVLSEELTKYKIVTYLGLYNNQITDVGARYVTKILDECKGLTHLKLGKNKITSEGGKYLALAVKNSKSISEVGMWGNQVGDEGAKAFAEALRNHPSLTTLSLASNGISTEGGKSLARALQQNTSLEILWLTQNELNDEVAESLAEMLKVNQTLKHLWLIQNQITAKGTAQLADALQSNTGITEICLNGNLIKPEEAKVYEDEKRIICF
The data set can be described thus: blockers of NOD1 pathway activity – revised, SAR follow-up (AID 2333). Format: functional.

Data set [3] has as its target Nucleotide-binding oligomerization domain-containing protein 2 (Homo sapiens, UniProt Q9HC29). The data set can be described thus: PubChem AID 2334. Format: functional.
Data set [4] relates to HEK293. The data set is described as follows: cells. The note with it: Homo sapiens.
Data set [5] addresses Cytochrome P450 2C19 (Homo sapiens, UniProt P33261). The data set is described as follows: Cytochrome panel assay with activity outcomes. Panel member name: p450-cyp2c19 Compounds with AC50 equal or less than 10 uM are considered active. Format: functional. The following applies: read-out: AC50.
The target in data set [6] is T2, DNA repair and recombination protein RAD54-like (Homo sapiens, UniProt Q92698).
T2 sequence (Q92698 whole entry): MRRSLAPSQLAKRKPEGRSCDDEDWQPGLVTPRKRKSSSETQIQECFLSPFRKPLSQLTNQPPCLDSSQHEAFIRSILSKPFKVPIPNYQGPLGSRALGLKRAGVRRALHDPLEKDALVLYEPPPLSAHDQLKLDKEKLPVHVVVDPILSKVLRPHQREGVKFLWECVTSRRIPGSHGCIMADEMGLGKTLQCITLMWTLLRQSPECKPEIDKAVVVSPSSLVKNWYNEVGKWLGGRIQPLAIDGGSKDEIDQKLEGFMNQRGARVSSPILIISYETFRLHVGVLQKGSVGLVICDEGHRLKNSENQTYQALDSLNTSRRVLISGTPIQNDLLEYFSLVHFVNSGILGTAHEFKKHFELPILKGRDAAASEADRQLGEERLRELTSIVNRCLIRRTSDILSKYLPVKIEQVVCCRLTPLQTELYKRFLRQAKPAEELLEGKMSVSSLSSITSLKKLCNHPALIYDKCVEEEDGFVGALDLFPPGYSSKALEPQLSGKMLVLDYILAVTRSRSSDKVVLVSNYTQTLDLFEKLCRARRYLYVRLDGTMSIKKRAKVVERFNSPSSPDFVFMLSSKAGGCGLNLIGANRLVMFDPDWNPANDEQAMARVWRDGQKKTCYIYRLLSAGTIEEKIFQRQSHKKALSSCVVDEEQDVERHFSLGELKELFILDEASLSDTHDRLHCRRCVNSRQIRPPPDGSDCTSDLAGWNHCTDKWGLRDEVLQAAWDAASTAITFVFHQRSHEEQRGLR
The data set is described as follows: RAD54 Holliday junction migration blockers – biochemical, fluorescence, cherry-picked samples, dose series, confirmation (AID 651657). Format: functional.

Data set [7] addresses T3, Cytochrome P450 2C9 (Homo sapiens, UniProt P11712).
Data set [8] has as its target Cytochrome P450 2D6 (Homo sapiens, UniProt P10635).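 Also: CYP2D6 member of a cytochrome P450 panel assay.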
For data set [9], the target named is Cytochrome P450 3A4 (Homo sapiens, UniProt P08684).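 Also: CYP3A4 tested as one member of a cytochrome P450 panel screen.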
Cytochrome P450 3A4, sequence (P08684 whole entry): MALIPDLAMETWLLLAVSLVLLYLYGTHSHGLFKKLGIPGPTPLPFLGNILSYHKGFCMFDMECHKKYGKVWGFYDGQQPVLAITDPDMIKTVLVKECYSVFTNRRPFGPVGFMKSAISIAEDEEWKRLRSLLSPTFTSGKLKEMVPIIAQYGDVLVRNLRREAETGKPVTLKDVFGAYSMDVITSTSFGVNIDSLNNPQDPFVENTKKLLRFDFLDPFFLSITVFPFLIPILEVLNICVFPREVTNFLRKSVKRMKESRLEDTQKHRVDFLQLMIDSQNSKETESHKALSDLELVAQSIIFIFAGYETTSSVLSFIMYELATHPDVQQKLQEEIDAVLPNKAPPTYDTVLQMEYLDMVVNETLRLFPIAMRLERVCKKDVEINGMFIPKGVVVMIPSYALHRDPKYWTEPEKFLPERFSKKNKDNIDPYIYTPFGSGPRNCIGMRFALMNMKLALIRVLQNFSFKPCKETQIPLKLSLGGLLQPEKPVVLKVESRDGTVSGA
In data set [10] the test system is Escherichia coli. The data set can be described thus: microbe, parasite or virus in culture.
Data set [11] concerns the target Delta-type opioid receptor (Homo sapiens, UniProt P41143). The data set is described as follows: Counterscreen for agonists of heterodimerization of the mu 1 (OPRM1) and delta 1 (OPRD1) opioid receptors: Luminescence-based cell-based high throughput dose response assay to identify agonists of OPRD1 homodimerization. [Related pubchem assays (depositor defined):AID504326, AID504355, AID504692, AID504904, AID504905]. Format: functional. A general note: A counterscreen serves to expose hits that act by an unwanted route or on another target.

Data set [12] deals with Mu-type opioid receptor (Homo sapiens, UniProt P35372). The data set is described as follows: Counterscreen for agonists of heterodimerization of the mu 1 (OPRM1) and delta 1 (OPRD1) opioid receptors: Luminescence-based cell-based high throughput dose response assay to identify agonists of OPRM1 homodimerization. Format: functional.
Mu-type opioid receptor, sequence (P35372 whole entry): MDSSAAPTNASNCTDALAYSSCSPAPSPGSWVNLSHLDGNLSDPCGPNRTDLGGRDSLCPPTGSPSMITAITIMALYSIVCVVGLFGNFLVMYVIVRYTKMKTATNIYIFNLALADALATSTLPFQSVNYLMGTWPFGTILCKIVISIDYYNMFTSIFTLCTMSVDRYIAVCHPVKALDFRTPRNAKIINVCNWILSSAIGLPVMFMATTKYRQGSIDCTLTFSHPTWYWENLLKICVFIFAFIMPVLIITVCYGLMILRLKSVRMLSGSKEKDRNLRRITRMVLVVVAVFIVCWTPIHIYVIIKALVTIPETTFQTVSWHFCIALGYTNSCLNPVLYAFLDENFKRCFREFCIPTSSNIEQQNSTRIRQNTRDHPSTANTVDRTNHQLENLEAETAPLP
The target of data set [13] is 5-hydroxytryptamine receptor 5A (Homo sapiens, UniProt P47898). The data set is described as follows: Counterscreen for agonists of OPRM1-OPRD1 heterodimerization: luminescence-based cell-based high throughput dose response assay to identify agonists of 5-hydroxytryptamine (serotonin) 5A receptor (HTR5A). [Related pubchem assays (depositor defined):AID504326, AID504355, AID504692, AID504904, AID504905]. Format: functional.
5-hydroxytryptamine receptor 5A, sequence (P47898 whole entry): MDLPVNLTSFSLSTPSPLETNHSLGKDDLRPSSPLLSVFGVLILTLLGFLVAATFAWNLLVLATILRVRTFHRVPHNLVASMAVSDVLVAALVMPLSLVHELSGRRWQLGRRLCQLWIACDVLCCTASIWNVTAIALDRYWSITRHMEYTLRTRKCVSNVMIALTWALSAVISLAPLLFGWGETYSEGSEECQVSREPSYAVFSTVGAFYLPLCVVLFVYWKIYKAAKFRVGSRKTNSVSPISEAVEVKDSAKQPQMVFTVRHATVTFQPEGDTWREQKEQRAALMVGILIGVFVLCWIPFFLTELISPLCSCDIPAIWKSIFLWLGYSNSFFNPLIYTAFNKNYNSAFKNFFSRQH

The target in data set [14] is T4, Carboxy-terminal domain RNA polymerase II polypeptide A small phosphatase 1 (Homo sapiens, UniProt Q9GZU7).
T4 sequence (Q9GZU7 whole entry): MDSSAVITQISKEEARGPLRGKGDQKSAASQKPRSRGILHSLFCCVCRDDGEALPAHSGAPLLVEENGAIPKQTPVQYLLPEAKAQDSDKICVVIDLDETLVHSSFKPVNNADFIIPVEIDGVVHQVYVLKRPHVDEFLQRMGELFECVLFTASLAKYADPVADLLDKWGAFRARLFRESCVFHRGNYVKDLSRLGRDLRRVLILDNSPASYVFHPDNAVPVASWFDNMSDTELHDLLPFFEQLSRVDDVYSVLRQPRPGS
The data set can be described thus: CTDSP1 inhibitors, concentration-response, biochemical, absorbance readout, ultra-high-throughput screen actives (AID 540297). Format: functional.

Data set [15] is described as follows: Luminescence Cell-Based Dose Confirmation HTS to Identify Activators of 5'UTR Stem-Loop Driven Alpha-Synuclein mRNA Translation in H4 Neuroglioblastoma Cells. [Related pubchem assays: 1829 (Project Summary), 1814 (Primary HTS)]. Format: functional.
The nature of data set [16]: Luminescence Cell-Based Dose Response HTS to Identify Activators of Luciferase Translation or Activity in H4 […] Cells. [Related pubchem assays: 1829 (Project Summary), 1814 (Primary HTS)]. Format: functional.
For data set [17], the system named is H4. The data set can be described thus: Luminescence Cell-Based Dose Response HTS to Identify Activators of 5'UTR Stem-Loop Driven Prion Protein mRNA Translation in H4 Neuroglioblastoma Cells. [Related pubchem assays: 1829 (Project Summary), 1814 (Primary HTS)]. Format: functional. The following applies: Homo sapiens.
Data set [18] concerns HeLa. The data set is described as follows: ATP-based viability loss in HeLa cells – cell-based, CellTiter-Glo luminescence, cherry-pick samples, cytotoxicity control for MITF activator project, dose response (AID 540259). Format: functional. The note with it: Homo sapiens.
Data set [19] relates to CHO. The data set is described as follows: CHO cell viability loss, potency – luminescence, cytotoxicity control for TLR9-MyD88 binding inhibitor project, dose response (AID 588339).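 Also: CHO cells stably coexpressing TLR9 and MyD88 fusions from primary screen; compound exposure lasted 48 hours before viability readout.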 Format: functional, cell-based, hamster. The following applies: Cricetulus griseus.
Data set [20] has as its target Beta Lactamase (Pseudomonas aeruginosa, UniProt Q932Y6). The data set can be described thus: BLA reporter interference, concentration series – BLA reporter cells, FRET fluorescence, artefact control for TLR9-MyD88 binding inhibitor project, dose response (AID 588341).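 Also: cell based assay in CHO-K1 cells stably expressing beta-lactamase.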 Format: cell-based.
In data set [21] the test system is INS1. The data set can be described thus: INS-1E survival protection against cytokine death – cell-based, luminescence, retest, dose response (AID 449756).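 Also: cell death triggered by IL-1 beta plus TNF-alpha plus IFN-gamma mixture; protective hits raise ATP signal compared with cytokine alone wells.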 Format: functional. The note with it: Rattus norvegicus.
The target of data set [22] is T5, Cytochrome P450 1A2 (Homo sapiens, UniProt P05177).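 Also: PubChem cytochrome P450 panel assay, CYP1A2 panel member.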
T5 sequence (P05177 whole entry): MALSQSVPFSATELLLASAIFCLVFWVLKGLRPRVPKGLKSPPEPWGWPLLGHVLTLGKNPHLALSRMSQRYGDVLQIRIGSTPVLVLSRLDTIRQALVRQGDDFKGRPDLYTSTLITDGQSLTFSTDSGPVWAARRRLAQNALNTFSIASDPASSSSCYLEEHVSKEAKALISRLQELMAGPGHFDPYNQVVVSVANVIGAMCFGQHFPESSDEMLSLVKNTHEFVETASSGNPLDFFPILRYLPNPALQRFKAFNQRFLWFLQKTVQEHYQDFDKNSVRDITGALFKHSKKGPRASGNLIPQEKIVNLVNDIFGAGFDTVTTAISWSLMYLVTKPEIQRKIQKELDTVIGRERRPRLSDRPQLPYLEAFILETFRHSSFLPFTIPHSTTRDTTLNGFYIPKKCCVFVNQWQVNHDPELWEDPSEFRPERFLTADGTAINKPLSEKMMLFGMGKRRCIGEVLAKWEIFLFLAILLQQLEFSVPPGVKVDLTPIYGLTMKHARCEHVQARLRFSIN

Data set [23] has as its target T3, Cytochrome P450 2C9. This is another data set of the same source.
In data set [24] the test system is Escherichia coli. The data set can be described thus: microbe, parasite or virus in culture. This is another data set of the same source.

Activity calls are given as the source filed them.

Nucleotide-binding oligomerization domain-containing protein 2, sequence (Q9HC29 whole entry, the tested form may be a part): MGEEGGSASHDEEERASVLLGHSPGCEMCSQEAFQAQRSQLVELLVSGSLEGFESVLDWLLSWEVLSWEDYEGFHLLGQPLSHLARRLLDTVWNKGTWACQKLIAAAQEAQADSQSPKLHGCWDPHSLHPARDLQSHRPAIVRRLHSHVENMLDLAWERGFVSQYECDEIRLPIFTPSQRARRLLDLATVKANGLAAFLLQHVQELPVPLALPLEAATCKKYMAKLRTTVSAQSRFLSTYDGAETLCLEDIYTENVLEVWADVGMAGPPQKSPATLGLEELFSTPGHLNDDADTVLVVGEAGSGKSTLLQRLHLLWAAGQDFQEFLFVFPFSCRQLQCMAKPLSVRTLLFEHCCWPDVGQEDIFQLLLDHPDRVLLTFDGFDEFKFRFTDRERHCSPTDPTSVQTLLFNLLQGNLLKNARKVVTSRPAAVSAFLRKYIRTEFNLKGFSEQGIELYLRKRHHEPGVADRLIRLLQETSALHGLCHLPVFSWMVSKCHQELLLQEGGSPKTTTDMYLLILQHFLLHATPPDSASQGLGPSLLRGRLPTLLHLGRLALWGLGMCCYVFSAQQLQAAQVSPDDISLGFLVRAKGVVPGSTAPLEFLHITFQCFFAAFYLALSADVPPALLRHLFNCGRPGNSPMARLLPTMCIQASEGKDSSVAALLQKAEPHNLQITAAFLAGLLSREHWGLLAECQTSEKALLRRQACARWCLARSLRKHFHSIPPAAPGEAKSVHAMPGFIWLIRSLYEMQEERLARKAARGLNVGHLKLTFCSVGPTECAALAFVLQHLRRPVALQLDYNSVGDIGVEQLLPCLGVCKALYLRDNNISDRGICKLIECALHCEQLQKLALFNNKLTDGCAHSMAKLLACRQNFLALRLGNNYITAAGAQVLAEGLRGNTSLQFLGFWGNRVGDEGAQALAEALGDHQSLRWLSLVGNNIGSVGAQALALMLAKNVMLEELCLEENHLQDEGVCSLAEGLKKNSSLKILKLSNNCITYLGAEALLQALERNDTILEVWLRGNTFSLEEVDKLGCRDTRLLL
T3 sequence (P11712 whole entry): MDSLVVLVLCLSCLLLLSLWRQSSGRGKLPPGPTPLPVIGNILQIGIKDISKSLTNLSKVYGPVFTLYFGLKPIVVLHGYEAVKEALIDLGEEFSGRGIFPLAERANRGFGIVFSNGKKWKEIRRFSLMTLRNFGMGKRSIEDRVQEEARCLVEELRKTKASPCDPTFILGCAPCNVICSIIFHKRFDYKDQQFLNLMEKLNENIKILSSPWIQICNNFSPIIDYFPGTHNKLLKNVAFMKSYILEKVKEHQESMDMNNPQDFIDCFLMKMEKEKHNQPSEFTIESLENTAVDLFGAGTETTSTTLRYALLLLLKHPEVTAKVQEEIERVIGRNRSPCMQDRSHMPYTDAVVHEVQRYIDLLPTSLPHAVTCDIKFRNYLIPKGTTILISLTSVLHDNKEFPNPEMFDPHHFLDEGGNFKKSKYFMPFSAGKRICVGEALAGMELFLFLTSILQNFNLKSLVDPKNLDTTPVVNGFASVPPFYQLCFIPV
Tumor necrosis factor, sequence (P01375 whole entry, the tested form may be a part): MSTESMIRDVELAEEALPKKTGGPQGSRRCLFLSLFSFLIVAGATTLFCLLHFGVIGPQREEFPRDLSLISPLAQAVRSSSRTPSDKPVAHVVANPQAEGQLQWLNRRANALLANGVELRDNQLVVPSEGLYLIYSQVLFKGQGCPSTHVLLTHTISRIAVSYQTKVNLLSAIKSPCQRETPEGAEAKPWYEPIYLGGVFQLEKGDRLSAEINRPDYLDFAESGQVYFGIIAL
Cytochrome P450 2D6, sequence (P10635 whole entry): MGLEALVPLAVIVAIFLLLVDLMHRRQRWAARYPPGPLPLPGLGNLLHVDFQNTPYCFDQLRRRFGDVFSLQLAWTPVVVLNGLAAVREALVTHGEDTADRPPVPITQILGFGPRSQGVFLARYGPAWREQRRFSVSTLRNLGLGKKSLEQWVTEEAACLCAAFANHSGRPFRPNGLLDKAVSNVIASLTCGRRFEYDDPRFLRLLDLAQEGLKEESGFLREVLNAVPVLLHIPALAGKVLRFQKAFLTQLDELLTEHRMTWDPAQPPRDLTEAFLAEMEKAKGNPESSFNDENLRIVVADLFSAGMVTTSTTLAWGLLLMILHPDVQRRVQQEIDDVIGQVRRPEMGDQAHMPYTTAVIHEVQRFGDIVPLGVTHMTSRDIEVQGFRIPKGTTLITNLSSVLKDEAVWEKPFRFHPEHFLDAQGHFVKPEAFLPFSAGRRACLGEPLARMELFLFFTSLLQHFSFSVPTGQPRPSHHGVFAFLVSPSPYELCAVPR
Cytochrome P450 2C19, sequence (P33261 whole entry): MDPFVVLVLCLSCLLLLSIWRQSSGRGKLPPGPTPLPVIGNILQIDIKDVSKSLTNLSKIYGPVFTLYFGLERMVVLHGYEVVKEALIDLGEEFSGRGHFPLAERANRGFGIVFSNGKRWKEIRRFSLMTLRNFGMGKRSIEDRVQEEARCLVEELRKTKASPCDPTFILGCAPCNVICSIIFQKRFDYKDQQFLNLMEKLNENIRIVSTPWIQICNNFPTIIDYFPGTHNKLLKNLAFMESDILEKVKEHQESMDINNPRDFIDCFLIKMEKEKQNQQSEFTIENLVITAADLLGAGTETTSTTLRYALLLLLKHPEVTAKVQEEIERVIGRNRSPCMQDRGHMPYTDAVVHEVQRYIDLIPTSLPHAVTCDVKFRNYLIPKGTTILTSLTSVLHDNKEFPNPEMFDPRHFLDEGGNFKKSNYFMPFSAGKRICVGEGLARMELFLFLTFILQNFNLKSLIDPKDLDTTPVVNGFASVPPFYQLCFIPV
Delta-type opioid receptor, sequence (P41143 whole entry): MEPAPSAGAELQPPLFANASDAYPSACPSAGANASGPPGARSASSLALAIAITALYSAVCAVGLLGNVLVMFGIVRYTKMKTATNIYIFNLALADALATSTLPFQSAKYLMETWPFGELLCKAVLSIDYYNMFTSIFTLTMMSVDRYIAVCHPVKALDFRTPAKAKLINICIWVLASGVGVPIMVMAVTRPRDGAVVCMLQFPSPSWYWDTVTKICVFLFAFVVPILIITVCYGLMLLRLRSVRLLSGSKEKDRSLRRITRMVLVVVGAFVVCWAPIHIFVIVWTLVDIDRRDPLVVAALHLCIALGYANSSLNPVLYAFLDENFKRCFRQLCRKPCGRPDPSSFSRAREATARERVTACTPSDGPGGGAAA
Beta Lactamase, sequence (Q932Y6 whole entry): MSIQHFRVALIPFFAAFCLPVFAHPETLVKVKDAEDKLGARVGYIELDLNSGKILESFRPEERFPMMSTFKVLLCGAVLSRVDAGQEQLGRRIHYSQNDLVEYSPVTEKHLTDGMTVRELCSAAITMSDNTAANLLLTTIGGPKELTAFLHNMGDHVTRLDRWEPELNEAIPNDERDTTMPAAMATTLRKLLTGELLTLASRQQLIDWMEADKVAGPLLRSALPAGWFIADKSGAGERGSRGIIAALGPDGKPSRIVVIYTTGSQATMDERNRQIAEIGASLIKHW

As usually defined, the IC50 is the concentration at which inhibition is half-maximal. Consider `CC(/C=C/c1ccccc1)=NNC(=O)c1cccc(Br)c1`, for which the IC50 in data set [1], in data set [2], in data set [3] and in [4] was > 20 µM (inactive) in each case.

One may read the AC50 as the concentration giving half of the maximal activity seen. Turning to `CCN1CCc2c(sc(NC(=O)c3ccc(S(=O)(=O)N4CCOCC4)cc3)c2C(=O)OC)C1.Cl`, the AC50 in data set [5] was 31.6 µM (inconclusive); in [6] it was 12.8 µM (active); in [7], 5.01 µM (inconclusive); in data set [8], “inconclusive”; in data set [9] it was “inconclusive”.

In the case of `O=C(COc1ccc2c3c(c(=O)oc2c1)CCCC3)NCc1ccncc1`, the AC50 in [10] was 38.2 µM (active).

In general, EC50 refers to the concentration at which the effect is half-maximal. For `Cc1cc(Cl)ccc1OCC(=O)N[C@@H](Cc1ccccc1)c1nc2ccccc2[nH]1`, the EC50 in [11], in data set [12] and in data set [13] was > 92.5 µM (inactive) throughout. The IC50 in data set [14] was 21.5 µM (active).

For the compound `Cc1ccc(-n2nnc(-c3ccnc4ccccc34)n2)cc1`, the EC50 was 0.371 µM (active) in data set [15], 0.745 µM (active) in data set [16] and 14.5 µM (active) in [17]. Moreover, the AC50 in data set [18] was 45.4 µM (active).

For `CC(C)(/N=N\C(C)(C)C(=N)N)C(=N)N.Cl`, the AC50 entry in data set [8] is on record as “inconclusive”.

Turning to `CC(C)CNC(=O)COC(=O)c1c2c(nc3ccccc13)/C(=C/c1cccs1)CC2`, the figures for the IC50 in data set [19] and in [20] were > 49.7 µM (inactive) and 3.52 µM (active), respectively. The AC50 in [21] was 43.8 µM (active).

In the case of `c1ccc2c(-c3csc(-c4ccncc4)n3)c[nH]c2c1`, the AC50 in data set [18] is 40.5 µM (active).

Regarding `CC(=O)Nc1nc2ccccc2n1Cc1ccccc1`, the IC50 in data set [1], in data set [2], in data set [3] and in data set [4] was > 20 µM (inactive) in each case. The AC50 in data set [7] was 35.5 µM (inconclusive).

With `COc1ccccc1-n1cnc2c(c1=O)c1nc3ccccc3nc1n2-c1ccc(C)cc1`, the IC50 in [14] is 8.78 µM (active).

`Cc1scc(C(=O)NN=C(S)NCC2CCCO2)c1C` (stereo not given): the AC50 is 6.31 µM (inconclusive) in data set [5], 11.2 µM (inconclusive) in data set [22], “inconclusive” in [8] and “inconclusive” in data set [23].

For `C[C@H](NC(=O)c1[nH]cnc1C(=O)NCC(=O)OC(C)(C)C)c1ccccc1`, the AC50 in data set [24] is 46.2 µM (active); in [10], 52.9 µM (active).

As to `c1ccc(-c2ccc3sccc3n2)cc1`, the AC50 in data set [18] was 79 µM (active).

As to `Cc1nonc1C(=O)NN=Cc1ccc([N+](=O)[O-])o1`, the IC50 in data set [1] was > 20 µM (inactive); in [2], 16.4 µM (active); in data set [3], 19.7 µM (active); in data set [4] it was > 20 µM (inactive).

Source of the values: ChEMBL document CHEMBL1201862, “PubChem BioAssay data set” (2004).
